Results on 6 molecules are retold here after patent publication US7858612B2, “Therapeutic agent for inflammatory bowel diseases” (Meiji Seika Kaisha, Ltd., priority 2007, dated 2010).

By inhibition is commonly meant the change of the read-out against control, counted positive when it falls.

Each structure is given as a SMILES string. Where two headings read alike, the source gives them in different places. Marks after values point to notes of the source that are not given here.

One series relates to IBD. The note with it: ulcerative colitis and Crohn's disease, literature; cited from earlier work.
In a further series the test system is DSS induced IBD model. Nature of the series: 3% dextran sulfate sodium (DSS) induced acute rat IBD model (prophylactic effect). Format: in vivo, Wistar rats. The note with it: for inhibition at 100 mg/kg/day / inhibition at 1 mg/kg/day: Rattus norvegicus, po, read-out: Inhibition rate (%); for Feces score: Table 3 (effectiveness on feces score). The text has this: IBD was induced by freely allowing male 7 week-old Wistar rats (purchased from Japan SLC, Inc.) to ingest 3% DSS solution (n=8). In the period of 7 days after initiating DSS administration, soft feces and blood feces scores were observed according to the following basis, and the sum of the soft feces score and blood feces score was obtained as the feces score of the individual animal.
• Soft feces score (0 to 3) • [0: nothing abnormal detected (NAD), • 1: slightly soft, • 2: soft, • 3: diarrhea] • Blood feces score (0 to 3) • [0: nothing abnormal detected (NAD), • 1: blood in feces, • 2: bright-red blood adhered on feces, • 3: melena]
1% Evans blue physiological saline was intravenously injected in an amount of 1 ml per rat 8 days after DSS exposure, and the animal was euthanized 30 minutes after that for excising the large intestine. After immobilizing the large intestine in the length of 7 to 8 cm from anus with 4% formalin buffer for 20 minutes, the intestine was longitudinally opened from the mesenterium side for photographing the rectal portion. Ulcer area was calculated by image analysis.
Compound A (10 mg/kg/day), or. sulfasalazine (100 mg/kg/day) or prednisolone (1 mg/kg/day) as a control compound was made into suspension in an agate mortar, which was orally administered twice a day at a dose of 5 ml/kg to each rat starting from a day before administration of DSS to a day before dissection. In this connection, 1% hydroxypropylmethyl cellulose solution (HPMC) was used as a solvent, which was administered at a dose of 5 ml/kg to the solvent treated group.

Another series deals with TNBS induced IBD model. Nature of the series: Trinitrobenzene sulfonic acid (TNBS) induced rat IBD model (therapeutic effect). The class given is in vivo, SD rats. The note with it: for Colonic ulceration score: 3 mg/kg × 2 oral. The protocol:
8 week-old male SD rats (purchased from Charles River
Laboratories Japan, Inc.) were intrarectally treated with TNBS to induce enteritis, and divided into groups 2 days after the treatment with TNBS to initiate the administration of the drugs. A solvent, Compound A (2, 20, 50 mg/kg/day), or prednisolone (6 mg/kg/day) was orally administered twice a day, and the rats were subjected to autopsy 8 days after administration for determining the macro observation score. The evaluation of the score was conducted by the method described in Table 4 according to the judgment method by JOHN L. WALLACE et al. (Gastroenterology 1989; 96: 29-36).
Furthermore, the large intestine was cut to a length of 10 cm for measuring the wet weight of intestine.

A further series has as its system splenocytes. Nature of the series: Direct effect on the activation of T cells: cytokine production by ovalbumin-stimulated splenocytes (ELISA). Format: cell-based, Balb/c mice. Particulars: for Production of IFNγ / Production of IL-2 / Production of IL-5: culture for 24 hours. On the procedure:
7 week-old male Balb/c mice (purchased from Japan SLC, Inc.) were sensitized with an aluminum hydroxide gel-ovalbumin suspension administered intraperitoneally or subcutaneously in both inguinal regions on the first and 14th days, and the spleen was excised on the 21st day for preparing a splenocyte suspension. After removal of erythrocytes, Compound B (10 μM) and ovalbumin were added to splenocytes suspended in a culture medium, and the mixture was cultured at 37° C. under a condition of 5% CO2.
IL-4 in the supernatant after culture for 6 hours, and IL-2, IL-5 and IFNγ in the supernatant after culture for 24 hours were quantitatively determined by ELISA (ELISA kit manufactured by ENDOGEN).
A general note: An ELISA detects its analyte on a solid surface through an enzyme-linked reagent.

Series [1] is described as follows: Test for converting Compound A into Compound B (oral 14C Compound A, Radio-HPLC). Format: in vivo, Wistar rats. The protocol:
Male 8 week-old Wistar rats (purchased from Japan SLC, Inc.) under fasting conditions were orally administered with ^14C labeled Compound A at a dose of 1 mg/kg, and the amounts of Compound B in plasma, urine and bile were determined by Radio-HPLC.

The test system of series [2] is DSS induced rat IBD chronic model. Nature of the series: DSS induced rat IBD chronic model (therapeutic effect). The class given is in vivo, Wistar rats. The protocol:
Colitis was induced by freely allowing male 7 week-old Wistar rats (purchased from Japan SLC, Inc.) to ingest 3% DSS solution for 3 days, and subsequently chronic IBD was induced by freely allowing to ingest 1% DSS solution starting from the 4th day of the test.
Compound A (2, 20 mg/kg/day), 5-aminosalicylic acid as a control (5-ASA: 200 mg/kg/day) and cyclosporine A (Cy A: 25 mg/kg/day) were administered to the animals starting from the 4th day of the test until the day of dissection (n=8 to 20).
The property of feces in individual animal was observed until the day before dissection, and the soft feces score and the blood feces score were determined according to the same basis as shown in Test Example 3 to obtain the sum of the soft feces score and blood feces score as the feces score.
Also, 1% Evans blue physiological saline was intravenously injected in an amount of 1 ml per rat on the day of dissection, and the animal was euthanized 30 minutes after that for excising the large intestine. After immobilizing the large intestine in the length of 7 to 8 cm from anus with 4% formalin buffer for 20 minutes, the intestine was longitudinally opened from the mesenterium side for photographing the rectal portion and measuring the rectum weight. The state and extent of eroded rectal portion were scored according to the following basis for making a macro observation score.
Macro observation score (0-5)
[0: normal, • 1: erosion formation in narrow ranges, • 2: weak erosion formation, without bleeding, • 3: moderate erosion formation and weak bleeding in narrow ranges, • 4: strong erosion formation and bleeding in narrow ranges, • 5: strong erosion formation and bleeding in wide ranges]
A therapeutic effect of Compound B orally administered was examined in the same manner as in Test Example 4 except that Compound B (20 mg/kg/day) was used in place of Compound A (n=12).

In series [3] the test system is carrageenin induced paw edema in rats. The series can be described thus: Carrageenin induced paw edema in rats. Format: in vivo, Wistar rats. The protocol: To right hind paws of male 7 week-old Wistar rats (purchased from Japan SLC, Inc.) 0.1 ml of 1% λ-carrageenin was subcutaneously injected to cause paw edema reaction (n=5). Compound A at doses of 1 to 25 mg/kg and indomethacin at a dose of 5 mg/kg were orally administered 15 and 60 minutes before administration of carrageenin, respectively.
Three hours after administration of carrageenin, when the paw edema reaction reached maximum, the effectiveness was evaluated from the volumes of the right hind paw edema.

Consider `O=C([O-])c1cc(=O)c2c(OCC(O)COc3cccc4oc(C(=O)[O-])cc(=O)c34)cccc2o1.[Na+].[Na+]` [disodium cromoglycate], for which the “Effectiveness against IBD” value with IBD is given as “ineffective against IBD”.
On to `O=C(O)c1cc(/N=N/c2ccc(S(=O)(=O)Nc3ccccn3)cc2)ccc1O` [Sulfasalazine, sulfasalazine], for which the inhibition at 100 mg/kg/day in the series with DSS induced IBD model (Table 2 (ulcer area reduction effect), 100 mg/kg/day oral) came to 8.2%; in the series on DSS induced IBD model (Table 3 (feces score), 100 mg/kg/day oral), 22.2%. This molecule also displayed a Feces score in the series with DSS induced IBD model (100 mg/kg/day oral, mean ± SE) of 2.63 ± 0.50.
Turning to `C[C@]12C=CC(=O)C=C1CC[C@@H]1[C@@H]2[C@@H](O)C[C@@]2(C)[C@H]1CC[C@]2(O)C(=O)CO` [Prednisolone, prednisolone, reference compound], in the series on DSS induced IBD model (1 mg/kg/day oral), the “Weight gain (side effect)” value is on record as “significant weight gain inhibitory effect”. In addition, the inhibition at 1 mg/kg/day in the series on DSS induced IBD model (Table 2 (ulcer area reduction effect), 1 mg/kg/day oral) was determined as 26.1%; in the series on DSS induced IBD model (Table 3 (feces score), 1 mg/kg/day oral) it was 40.7%. The same molecule came in with a ulcer area with DSS induced IBD model (Table 2 (title: ulcer area reduction effect), 1 mg/kg/day oral, twice a day, mean ± SE) of 337.5 ± 34.1. Moreover, the Feces score in the series with DSS induced IBD model (1 mg/kg/day oral, mean ± SE) was found to be 2.00 ± 0.42. Further, the Colonic ulceration score was 3.0 ± 0.5^b with TNBS induced IBD model (from 2 days after TNBS) and 1.05 ± 0.09^bb in the series on TNBS induced IBD model (Table 6 (title: colonic wet weight of large intestine, 10 cm)). In the series on TNBS induced IBD model (6 mg/kg/day oral), the Weight gain entry is reported as “remarkable inhibition of (P<0.01) weight gain”. Also, in the series on splenocytes (concentration not given), the “Production of IFNγ” value is “almost completely inhibited”. In the series with splenocytes (concentration not given), the “Production of IL-2” value is “almost completely inhibited”. Besides, in the series on splenocytes (concentration not given), the “Production of IL-5” value was “almost completely inhibited”.
As for `COc1cc2[nH]c(=O)c3nn[nH]c3c(=O)c2cc1OC` [Compound B, 7,8-dimethoxy-4(5H),10-dioxo-1H-1,2,3-triazolo[4,5-c][1]benzoazepine], the Detection in plasma result in series [1] (15 minutes after oral 14C labeled Compound A 1 mg/kg, fasting rats) is reported as “detected as the main metabolite”. The Detection in bile result in series [1] (bile collected for 8 hours after oral 14C labeled Compound A 1 mg/kg) was “detected as the main metabolite”. Further, the Detection in urine entry in series [1] (urine collected for 24 hours after oral 14C labeled Compound A 1 mg/kg) is reported as “detected as the main metabolite”. Also, the “Effect on macro observation score” value in series [2] (20 mg/kg/day oral) is “an inhibitory effect was recognized”. Moreover, the “Feces score on the day before dissection” value in series [2] (20 mg/kg/day oral, n=12, solvent treated group 1.9±0.25, P<0.05) was 0.9±0.24. In addition, the “Side effects such as inhibition of weight gain” value in series [2] (rat, in vivo) is recorded as “not observed”. Moreover, the “Production of IL-4” value in the series on splenocytes (10 μM, culture for 6 hours) is recorded as “did not inhibit”. In the series with splenocytes (10 μM), the “Production of IFNγ” value is “did not inhibit”, the “Production of IL-2” value is recorded as “did not inhibit” and the “Production of IL-5” value is “did not inhibit”.
Consider `Nc1ccc(O)c(C(=O)O)c1` [Compound 5-ASA, 5-aminosalicylic acid, reference compound], for which the “Inhibitory effects in any evaluation items” value in series [2] (200 mg/kg/day from 4th day) is “significant inhibitory effects were not recognized”.
As for `COc1ccc2c(c1)c(CC(=O)O)c(C)n2C(=O)c1ccc(Cl)cc1` [Indomethacin, indomethacin, reference compound], the “Inhibitory effect on paw edema” value in series [3] (5 mg/kg oral) is reported as “significant (p<0.01) inhibitory effect”. The molecule further came in with a Volume of edema in series [3] (5 mg/kg oral 60 min before carrageenin, 3 h after carrageenin, mean ± SE) of 0.48 ± 0.04 mL.
